PMC9781020, “Anti-Mycobacterial N-(2-Arylethyl)quinolin-3-amines Inspired by Marine Sponge-Derived Alkaloid” (Molecules, 2022)
Converted amounts (≈) assume the structure as drawn. Read-outs that look alike come from different tables or passages of the source.

What was measured:
M. bovis BCG = experiment: microbe, parasite or virus in culture; format: cell-based, Mycobacterium bovis BCG Pasteur; conditions: for MIC: Mycobacterium tuberculosis variant bovis BCG, BCG; for anti-mycobacterial activity (in words): M. bovis BCG
[1] = Cytotoxicity against HUVECs (WST-8); format: cell-based, human; conditions: human, HUVECs (human umbilical vein endothelial cells), 72 h
Method: (§1) HUVECs (5 × 10^5 cells/vial) was purchased from Kurabo Inc. and grown in HuMedia-EG2 medium with growth supplements (Kurabo Inc., Osaka, Japan). HUVECs in the culture medium was plated into each well of 96-well plates (2 × 10^3 cells/well/100 µL). After 24 h, the serially diluted compounds, which were dissolved in the medium containing no more than 0.5% EtOH, were added, and then the plates were incubated for an additional 72 h in a humidified atmosphere of 5% CO2 at 37 °C. The cell proliferation was detected by WST-8 colorimetric reagent (Nacalai Tesque, Inc., Kyoto, Japan). The IC50 value was determined by linear interpolation from the growth inhibition curve.

HUVECs = experiment: Cytotoxicity against HUVECs (WST-8); format: cell-based, human
Method: as §1

| Structure (SMILES) | MIC (M. bovis BCG; 168 h, read-out: MIC (Aerobic)) | MIC (M. bovis BCG; 336 h, read-out: MIC (Hypoxic)) | IC50 at 72 h [1] | anti-mycobacterial activity (in words) (M. bovis BCG) | cytotoxicity (in words) (HUVECs) |
| --- | --- | --- | --- | --- | --- |
| COC1=Cc2ccnc3c(NCCc4ccccc4)cnc(c23)C1=O [Compound 1, 3-(phenethylamino)demethyl(oxy)aaptamine, reference compound] | 1.56 µM (≈ 0.517 µg/mL) | 1.56 µM (≈ 0.517 µg/mL) | 1.36 µM | – | – |
| COc1cc2ccnc(C(=O)NCCc3ccccc3)c2cc1OC [Compound 5, 6,7-Dimethoxy-N-phenethylisoquinoline-1-carboxamide] | 100 µM (≈ 33.6 µg/mL) | 200 µM (≈ 67.3 µg/mL) | 11.9 µM | weak anti-mycobacterial activity | – |
| c1ccc(CCNc2cnc3ccccc3c2)cc1 [Compound 6, N-Phenethylquinolin-3-amine] | 6.25 µM (≈ 1.55 µg/mL) | 50 µM (≈ 12.4 µg/mL) | 18 µM | – | – |
| c1ccc(CCNc2cncc3cccnc23)cc1 [Compound 7, N-Phenethyl-1,6-naphthyridin-8-amine] | 100 µM (≈ 24.9 µg/mL) | 50 µM (≈ 12.5 µg/mL) | 8.1 µM | weak anti-mycobacterial activity | – |
| c1ccc(CCNc2cccnc2)cc1 [Compound 8, N-Phenethylpyridin-3-amine] | 200 µM (≈ 39.7 µg/mL) | 200 µM (≈ 39.7 µg/mL) | > 100 µM | weak anti-mycobacterial activity | – |
| O=C1C=CC(=O)c2ncc(NCCc3ccccc3)cc21 [Compound 25, 3-(Phenethylamino)quinoline-5,8-dione] | 100 µM (≈ 27.8 µg/mL) | > 200 µM | < 1 µM | weakened anti-mycobacterial activity | enhanced cytotoxicity |
| COC1=CC(=O)c2cc(NCCc3ccccc3)cnc2C1=O [Compound 32, 7-Methoxy-3-(phenethylamino)quinoline-5,8-dione] | 25 µM (≈ 7.71 µg/mL) | 50 µM (≈ 15.4 µg/mL) | < 1 µM | weakened anti-mycobacterial activity | enhanced cytotoxicity |
| O=c1c(NCCc2ccccc2)c[nH]c2ccccc12 [Compound 35, 3-(Phenethylamino)quinolin-4(1H)-one] | > 200 µM | > 200 µM | > 100 µM | no anti-mycobacterial or cytotoxic activity | no anti-mycobacterial or cytotoxic activity |
| O=C(Cc1ccccc1)Nc1cnc2ccccc2c1 [Compound 36, 2-Phenyl-N-(quinolin-3-yl)acetamide] | 100 µM (≈ 26.2 µg/mL) | 100 µM (≈ 26.2 µg/mL) | 4.9 µM | significantly weakened anti-mycobacterial activity | – |
| CN(CCc1ccccc1)c1cnc2ccccc2c1 [Compound 37, N-Methyl-N-phenethylquinolin-3-amine] | 6.25 µM (≈ 1.64 µg/mL) | 50 µM (≈ 13.1 µg/mL) | 16 µM | antibacterial activity comparable to that of 6 | – |
| C#CCN(CCc1ccccc1)c1cnc2ccccc2c1 [Compound 38, N-Phenethyl-N-(prop-2-yn-1-yl)quinolin-3-amine] | 100 µM (≈ 28.6 µg/mL) | 100 µM (≈ 28.6 µg/mL) | 18 µM | significantly weakened anti-mycobacterial activity | – |
| c1ccc(CCOc2cnc3ccccc3c2)cc1 [Compound 40, 3-Phenethoxyquinoline] | 50 µM (≈ 12.5 µg/mL) | 100 µM (≈ 24.9 µg/mL) | 11 µM | significantly weakened anti-mycobacterial activity | – |
| c1ccc2ncc(NCCC3CCCCC3)cc2c1 [Compound 42, N-(2-Cyclohexylethyl)quinolin-3-amine] | 50 µM (≈ 12.7 µg/mL) | 100 µM (≈ 25.4 µg/mL) | 15 µM | – | – |
| c1ccc2ncc(NCCc3cccc4ccccc34)cc2c1 [Compound 43, N-(2-(Naphthalen-1-yl)ethyl)quinolin-3-amine] | 100 µM (≈ 29.8 µg/mL) | > 200 µM | 11 µM | markedly reduced anti-mycobacterial activity | – |
| c1ccc2cc(CCNc3cnc4ccccc4c3)ccc2c1 [Compound 44, N-(2-(Naphthalen-2-yl)ethyl)quinolin-3-amine] | 6.25 µM (≈ 1.86 µg/mL) | 12.5 µM (≈ 3.73 µg/mL) | 13 µM | good anti-mycobacterial activity under aerobic and hypoxic conditions | – |
| c1csc(CCNc2cnc3ccccc3c2)c1 [Compound 45, N-(2-(Thiophen-2-yl)ethyl)quinolin-3-amine] | 6.25 µM (≈ 1.59 µg/mL) | 50 µM (≈ 12.7 µg/mL) | 14 µM | – | – |
| C#CCCNc1cnc2ccccc2c1 [Compound 46, N-(But-3-yn-1-yl)quinolin-3-amine] | > 200 µM | > 200 µM | 53 µM | – | – |
| NNC(=O)c1ccncc1 [isoniazid, reference compound] | 0.39 µM (≈ 0.0535 µg/mL) | > 200 µM | – | – | – |
